Experimental data published in patent publication US6936610B2, “Heterocyclic derivatives” (AstraZeneca UK Limited, priority 1996, dated 2005).
Where a name gives a salt, the structure may show the parent alone.

melting point [°C] | Structure (SMILES)
204 to 205 | Cc1cc(-c2ccc(C(=O)N3CCN(S(=O)(=O)c4ccc5cc(Br)ccc5c4)CC3)cc2)ccn1 [Example 8, 1-(6-bromonaphth-2-ylsulphonyl)-4-[4-(2-methyl-4-pyridyl)benzoyl]piperazine]
175 to 176 | O=C(c1ccc(-c2ccncc2)cc1)N1CCN(S(=O)(=O)c2ccc3cc(Cl)ccc3c2)CC1 (as salt: trifluoroacetate) [Example 7, 1-(6-chloronaphth-2-ylsulphonyl)4-[4-(4-pyridyl)benzoyl]piperazine]
128 to 130 | O=C(c1ccc(-c2ccnnc2)cc1)N1CCN(S(=O)(=O)c2ccc3cc(Br)ccc3c2)CC1 [Example 9, 1-(6-bromonaphth-2-ylsulphonyl)4-[4-(4-pyridazinyl)benzoyl]piperazine]
